Values of other authors, collected in patent publication US20040023948A1, “Fast-dispersing dosage form containing 5-HT1 agonists” (priority 1997, published 2004).

Details: Vogel conflict test in rats; Gammans et al. 1986

c1cnc(N2CCNCC2)nc1 [Example 1-PP, 1-pyrimidinylpiperazine]
activity relative to unchanged buspirone: ≤ 20%
